Measured values reported in patent US9988430B2, “Stable GLP-1 based GLP-1/glucagon receptor co-agonists” (Novo Nordisk A/S, priority 2014, dated 2018).
*1 amine or outer side, *2 acyl side, *3 side chain or, on linkers, in order; H or OH if unused. Where a SMILES comes first, the peptide text is derived from it. Bridges are numbered along the chain shown (N, C = ends). Roman numbers before positions name the chains, in order. [ ]: non-standard residue; d: D form. The star is where a group is joined. C18 diacid = O=C(O)CCCCCCCCCCCCCCCCC(=O)*; γGlu = O=C(O)[C@H](CCC(=O)[*:2])N[*:1]; Desaminohistidyl = O=C(CCc1c[nH]cn1)*; Aib = CC(C)(N)C(=O)O

What was measured:
human GLP-1 receptor = molecular target: T1, human GLP-1 receptor (Homo sapiens, UniProt P43220); test: Assay (II)(a): GLP-1 receptor binding, [125I]GLP-1 displacement, SPA on BHK membranes; details: displacement of [125I]GLP-1, membranes with human GLP-1 receptor; read-out: IC50 GLP-1R
T1 construct: expressed in transfected cells; host or cells: membranes of BHK cells, parent line BHKTS13, clone FCW467-12A
T1 sequence (P43220 24-463): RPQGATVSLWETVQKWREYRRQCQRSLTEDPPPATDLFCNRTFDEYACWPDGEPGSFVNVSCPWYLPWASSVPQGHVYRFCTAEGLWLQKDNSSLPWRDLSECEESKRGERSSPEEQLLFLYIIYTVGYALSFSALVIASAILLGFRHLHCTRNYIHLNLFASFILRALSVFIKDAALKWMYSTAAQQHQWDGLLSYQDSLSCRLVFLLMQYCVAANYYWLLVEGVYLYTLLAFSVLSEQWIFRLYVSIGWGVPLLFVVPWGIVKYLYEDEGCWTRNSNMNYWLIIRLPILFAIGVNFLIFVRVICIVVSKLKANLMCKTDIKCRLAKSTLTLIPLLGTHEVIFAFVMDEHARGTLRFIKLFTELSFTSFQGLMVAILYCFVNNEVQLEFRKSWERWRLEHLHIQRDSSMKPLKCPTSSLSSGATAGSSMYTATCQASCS
Outline: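 Membranes from BHK cells expressing human GLP-1 receptor with WGA SPA beads, [125I]GLP-1(7-36)NH2 (480 pM added solution) and compound in HEPES pH 7.4 buffer with EGTA, MgCl2, Tween 20. Incubated 2 h at 30° C; SPA counts fitted by non-linear regression to IC50 in nM.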

[1] = Assay (V): chemical stability assessment by RP-UPLC; type: physicochemical; details: 14 days at 37° C. in phosphate buffer (pH 7.3)
Outline: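 Lyophilized peptide dissolved in 8 mM phosphate pH 8.6, adjusted to pH 7.3, final 333 μM, held 14 days at 5° C and 37° C. Purity is main-peak area % by RP-UPLC with UV detection at 215 nm. Degradation is the 5° C minus 37° C purity difference divided by the 5° C purity.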

IC50 (human GLP-1 receptor) | Chemical stability: Chemical degradation over 14 days at 37° C. [1] | SMILES
500 pM | 0.0% | CC[C@H](C)[C@H](NC(=O)[C@H](Cc1ccccc1)NC(=O)[C@H](CCC(=O)O)NC(=O)[C@H](CCCNC(=N)N)NC(=O)[C@H](C)NC(=O)[C@H](C)NC(=O)[C@H](CCC(N)=O)NC(=O)[C@H](CCC(=O)O)NC(=O)[C@H](CCC(=O)O)NC(=O)[C@H](CC(C)C)NC(=O)[C@H](Cc1ccc(O)cc1)NC(=O)[C@H](CCCNC(=N)N)NC(=O)[C@H](CO)NC(=O)[C@@H](NC(=O)[C@H](CC(=O)O)NC(=O)[C@H](CO)NC(=O)[C@@H](NC(=O)[C@H](Cc1ccccc1)NC(=O)[C@@H](NC(=O)CNC(=O)[C@H](Cc1c[nH]cn1)NC(=O)C(C)(C)NC(=O)CCc1c[nH]cn1)[C@@H](C)O)[C@@H](C)O)C(C)C)C(=O)N[C@@H](C)C(=O)N[C@@H](Cc1c[nH]c2ccccc12)C(=O)N[C@@H](CC(C)C)C(=O)N[C@@H](CC(C)C)C(=O)N[C@@H](CCCCNC(=O)CNC(=O)[C@H](CO)NC(=O)[C@H](CCC(=O)O)NC(=O)CNC(=O)[C@H](CO)NC(=O)CC[C@H](NC(=O)CC[C@H](NC(=O)CCCCCCCCCCCCCCCCC(=O)O)C(=O)O)C(=O)O)C(=O)N[C@H](C(N)=O)[C@@H](C)O [Example 7, N^ε34-[2-[[(2S)-2-[[(2S)-4-carboxy-2-[[2-[[(2S)-2-[[(4S)-4-carboxy-4-[[(4S)-4-carboxy-4-(17-carboxyheptadecanoylamino)butanoyl]amino]butanoyl]amino]-3-hydroxypropanoyl]amino]acetyl]amino]butanoyl]amino]-3-hydroxypropanoyl]amino]acetyl]-[Imp7,Aib8,His9,Arg18,Glu22,Arg26,Leu33,Thr35]-GLP-1-(7-35)-peptide amide] (I: Desaminohistidyl-[Aib]HGTFTSDVSRYLEEQAAREFIAWLLKT-NH2 / II: {C18 diacid-γGlu-γGlu}-SGESG; amide I:27-II:C)
900 pM | 1.6% | CC[C@H](C)[C@H](NC(=O)[C@H](Cc1ccccc1)NC(=O)[C@H](CCC(=O)O)NC(=O)[C@H](CCCNC(=N)N)NC(=O)[C@H](C)NC(=O)[C@H](C)NC(=O)[C@H](CCC(N)=O)NC(=O)CNC(=O)[C@H](CCC(=O)O)NC(=O)[C@H](CC(C)C)NC(=O)[C@H](Cc1ccc(O)cc1)NC(=O)[C@H](CCCNC(=N)N)NC(=O)[C@H](CO)NC(=O)[C@@H](NC(=O)[C@H](CC(=O)O)NC(=O)[C@H](CO)NC(=O)[C@@H](NC(=O)[C@H](Cc1ccccc1)NC(=O)[C@@H](NC(=O)CNC(=O)[C@H](Cc1c[nH]cn1)NC(=O)C(C)(C)NC(=O)CCc1c[nH]cn1)[C@@H](C)O)[C@@H](C)O)C(C)C)C(=O)N[C@@H](C)C(=O)N[C@@H](Cc1c[nH]c2ccccc12)C(=O)N[C@@H](CC(C)C)C(=O)N[C@@H](CC(C)C)C(=O)N[C@@H](CCCCNC(=O)CNC(=O)[C@H](CO)NC(=O)[C@H](CCC(=O)O)NC(=O)CNC(=O)[C@H](CO)NC(=O)CC[C@H](NC(=O)CC[C@H](NC(=O)CCCCCCCCCCCCCCCCC(=O)O)C(=O)O)C(=O)O)C(=O)N[C@H](C(N)=O)[C@@H](C)O [Example 8, N^ε34-[2-[[(2S)-2-[[(2S)-4-carboxy-2-[[2-[[(2S)-2-[[(4S)-4-carboxy-4-[[(4S)-4-carboxy-4-(17-carboxyheptadecanoylamino)butanoyl]amino]butanoyl]amino]-3-hydroxypropanoyl]amino]acetyl]amino]butanoyl]amino]-3-hydroxypropanoyl]amino]acetyl]-[Imp7,Aib8,His9,Arg18,Arg26,Leu33,Thr35]-GLP-1-(7-35)-peptide amide] (I: Desaminohistidyl-[Aib]HGTFTSDVSRYLEGQAAREFIAWLLKT-NH2 / II: {C18 diacid-γGlu-γGlu}-SGESG; amide I:27-II:C)
